Reference: patent US8192962B2, “Processes for detecting toxic substances” (Daikin Industries, Ltd., priority 2001, dated 2012)

Tested on: Energy system protein genes
Assay: DNA chip mRNA expression in yeast, energy system protein genes (Table 4)
Type: cell-based, Saccharomyces cerevisiae S288C
Outline: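 Chemical exposure: 2 h, log-phase S. cerevisiae S288C, YPD, 25° C., dose set to inhibit growth without death. Profiling: mRNA labeled by reverse transcription with Cy3- or Cy5-dUTP, hybridized to whole-genome array. Output: fluorescence ratio against untreated culture.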

CCCCCCCCCCCCOS(=O)(=O)[O-].[Na+] [(18), sodium lauryl sulfate]
The level of expressed mRNA in the presence of chemical substance/The level of expressed mRNA in the absence of chemical substance (yeast gene YJR009C): 1.3
The level of expressed mRNA in the presence of chemical substance/The level of expressed mRNA in the absence of chemical substance (yeast gene YJR048W): 1.2
The level of expressed mRNA in the presence of chemical substance/The level of expressed mRNA in the absence of chemical substance (yeast gene YJR121W, cells incubated two hours with the chemical substance): 1.4
The level of expressed mRNA in the presence of chemical substance/The level of expressed mRNA in the absence of chemical substance (yeast gene YJR155W): 1.4
The level of expressed mRNA in the presence of chemical substance/The level of expressed mRNA in the absence of chemical substance (yeast gene YKL016C, cells incubated two hours with the chemical substance): 1.7
The level of expressed mRNA in the presence of chemical substance/The level of expressed mRNA in the absence of chemical substance (yeast gene YKL060C, cells incubated two hours with the chemical substance): 1.7
The level of expressed mRNA in the presence of chemical substance/The level of expressed mRNA in the absence of chemical substance (yeast gene YKL141W, cells incubated two hours with the chemical substance): 1.8
The level of expressed mRNA in the presence of chemical substance/The level of expressed mRNA in the absence of chemical substance (yeast gene YKL148C, cells incubated two hours with the chemical substance): 1.0
The level of expressed mRNA in the presence of chemical substance/The level of expressed mRNA in the absence of chemical substance (yeast gene YKR009C, cells incubated two hours with the chemical substance): 2.5
The level of expressed mRNA in the presence of chemical substance/The level of expressed mRNA in the absence of chemical substance (yeast gene YKR058W, cells incubated two hours with the chemical substance, 25° C., YPD medium): 1.6
The level of expressed mRNA in the presence of chemical substance/The level of expressed mRNA in the absence of chemical substance (yeast gene YKR097W): 1.5
The level of expressed mRNA in the presence of chemical substance/The level of expressed mRNA in the absence of chemical substance (yeast gene YLL041C, cells incubated two hours with the chemical substance): 1.7
The level of expressed mRNA in the presence of chemical substance/The level of expressed mRNA in the absence of chemical substance (yeast gene YLR038C, cells incubated two hours with the chemical substance): 2.1
The level of expressed mRNA in the presence of chemical substance/The level of expressed mRNA in the absence of chemical substance (yeast gene YLR044C, cells incubated two hours with the chemical substance): 0.9
The level of expressed mRNA in the presence of chemical substance/The level of expressed mRNA in the absence of chemical substance (yeast gene YLR134W, cells incubated two hours with the chemical substance): 0.8
The level of expressed mRNA in the presence of chemical substance/The level of expressed mRNA in the absence of chemical substance (yeast gene YLR258W, cells incubated two hours with the chemical substance): 2.0
The level of expressed mRNA in the presence of chemical substance/The level of expressed mRNA in the absence of chemical substance (yeast gene YLR284C, cells incubated two hours with the chemical substance): 8.1
The level of expressed mRNA in the presence of chemical substance/The level of expressed mRNA in the absence of chemical substance (yeast gene YLR295C, cells incubated two hours with the chemical substance, 25° C., YPD medium): 1.5
The level of expressed mRNA in the presence of chemical substance/The level of expressed mRNA in the absence of chemical substance (yeast gene YLR304C, cells incubated two hours with the chemical substance): 0.7
The level of expressed mRNA in the presence of chemical substance/The level of expressed mRNA in the absence of chemical substance (yeast gene YLR345W): 1.4
The level of expressed mRNA in the presence of chemical substance/The level of expressed mRNA in the absence of chemical substance (yeast gene YLR354C, cells incubated two hours with the chemical substance): 1.5
The level of expressed mRNA in the presence of chemical substance/The level of expressed mRNA in the absence of chemical substance (yeast gene YLR377C, cells incubated two hours with the chemical substance): 1.4
The level of expressed mRNA in the presence of chemical substance/The level of expressed mRNA in the absence of chemical substance (yeast gene YLR395C, cells incubated two hours with the chemical substance): 2.3
The level of expressed mRNA in the presence of chemical substance/The level of expressed mRNA in the absence of chemical substance (yeast gene YML087C): 0.8
The level of expressed mRNA in the presence of chemical substance/The level of expressed mRNA in the absence of chemical substance (yeast gene YML120C, cells incubated two hours with the chemical substance): 1.6
The level of expressed mRNA in the presence of chemical substance/The level of expressed mRNA in the absence of chemical substance (yeast gene YML129C, cells incubated two hours with the chemical substance): 1.3
The level of expressed mRNA in the presence of chemical substance/The level of expressed mRNA in the absence of chemical substance (yeast gene YMR073C, cells incubated two hours with the chemical substance): 1.2
The level of expressed mRNA in the presence of chemical substance/The level of expressed mRNA in the absence of chemical substance (yeast gene YMR118C): 1.0
The level of expressed mRNA in the presence of chemical substance/The level of expressed mRNA in the absence of chemical substance (yeast gene YMR205C, cells incubated two hours with the chemical substance): 0.5
The level of expressed mRNA in the presence of chemical substance/The level of expressed mRNA in the absence of chemical substance (yeast gene YMR261C, cells incubated two hours with the chemical substance): 1.1
The level of expressed mRNA in the presence of chemical substance/The level of expressed mRNA in the absence of chemical substance (yeast gene YMR267W, cells incubated two hours with the chemical substance, 25° C., YPD medium): 1.3
The level of expressed mRNA in the presence of chemical substance/The level of expressed mRNA in the absence of chemical substance (yeast gene YMR323W, cells incubated two hours with the chemical substance): 0.6
The level of expressed mRNA in the presence of chemical substance/The level of expressed mRNA in the absence of chemical substance (yeast gene YNL071W): 1.2
The level of expressed mRNA in the presence of chemical substance/The level of expressed mRNA in the absence of chemical substance (yeast gene YNL202W, cells incubated two hours with the chemical substance): 3.3
The level of expressed mRNA in the presence of chemical substance/The level of expressed mRNA in the absence of chemical substance (yeast gene YNL241C): 1.0
The level of expressed mRNA in the presence of chemical substance/The level of expressed mRNA in the absence of chemical substance (yeast gene YNL331C): 1.3
The level of expressed mRNA in the presence of chemical substance/The level of expressed mRNA in the absence of chemical substance (yeast gene YOL086C, cells incubated two hours with the chemical substance): 1.3
The level of expressed mRNA in the presence of chemical substance/The level of expressed mRNA in the absence of chemical substance (yeast gene YOL165C): 1.0
The level of expressed mRNA in the presence of chemical substance/The level of expressed mRNA in the absence of chemical substance (yeast gene YOR142W, cells incubated two hours with the chemical substance): 1.0
The level of expressed mRNA in the presence of chemical substance/The level of expressed mRNA in the absence of chemical substance (yeast gene YOR178C, cells incubated two hours with the chemical substance): 1.5
The level of expressed mRNA in the presence of chemical substance/The level of expressed mRNA in the absence of chemical substance (yeast gene YOR388C, cells incubated two hours with the chemical substance): 0.9
The level of expressed mRNA in the presence of chemical substance/The level of expressed mRNA in the absence of chemical substance (yeast gene YPL031C, cells incubated two hours with the chemical substance): 1.2
The level of expressed mRNA in the presence of chemical substance/The level of expressed mRNA in the absence of chemical substance (yeast gene YPL061W, cells incubated two hours with the chemical substance): 2.6
The level of expressed mRNA in the presence of chemical substance/The level of expressed mRNA in the absence of chemical substance (yeast gene YPL088W): 8.3
The level of expressed mRNA in the presence of chemical substance/The level of expressed mRNA in the absence of chemical substance (yeast gene YPL171C): 1.5
The level of expressed mRNA in the presence of chemical substance/The level of expressed mRNA in the absence of chemical substance (yeast gene YPL240C): 1.0
The level of expressed mRNA in the presence of chemical substance/The level of expressed mRNA in the absence of chemical substance (yeast gene YPL262W, cells incubated two hours with the chemical substance): 1.2
The level of expressed mRNA in the presence of chemical substance/The level of expressed mRNA in the absence of chemical substance (yeast gene YPL275W, cells incubated two hours with the chemical substance): 1.0
The level of expressed mRNA in the presence of chemical substance/The level of expressed mRNA in the absence of chemical substance (yeast gene YPL276W, cells incubated two hours with the chemical substance): 0.8
The level of expressed mRNA in the presence of chemical substance/The level of expressed mRNA in the absence of chemical substance (yeast gene YPR048W, cells incubated two hours with the chemical substance): 0.8
The level of expressed mRNA in the presence of chemical substance/The level of expressed mRNA in the absence of chemical substance (yeast gene YPR184W, cells incubated two hours with the chemical substance): 1.7
